From patent US20260167623A1 (NIKANG THERAPEUTICS, INC., priority 2022, published 2026)

Molecular target: T1, CDK2 (Homo sapiens, UniProt P24941)
T1 construct: High-Throughput Measurement of Cellular Endogenous CDK2; endogenous in cells; host or cells: OVCAR3
Assay: Inhibition of CDK2: phospho-Rb (S807/811) HTRF measurement in OVCAR3 cells, 24 h
Type: cell-based
Details: 24 h compound treatment, read-out: pRB_OVCAR3_24h
Outline: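 OVCAR3 cells, seeded overnight, were exposed to compounds at 0.3 to 10,000 nM for 24 h, then lysed. Rb S807/811 phosphorylation read by HTRF (665/620 nm ratio) after 4 h detection at room temperature; data normalized to DMSO and IC50 from four-parameter logistic fit.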

IC50, 100 to 500 nM:
O=C1CCN(c2cnc3c(C4CCN(CC5CCN(c6cccc(S(=O)(=O)N7CCC(Nc8ncc(Cl)cn8)CC7)c6)CC5)CC4)cccn23)C(=O)N1 [Example 213, 1-(8-(1-((1-(3-((4-((5-chloropyrimidin-2-yl)amino)piperidin-1-yl)sulfonyl)phenyl)piperidin-4-yl)methyl)piperidin-4-yl)imidazo[1,2-a]pyridin-3-yl)dihydropyrimidine-2,4(1H,3H)-dione]
Cn1nc(N2CCC(=O)NC2=O)c2ccc(C3CCN(Cc4cccc(S(=O)(=O)N5CCC(Nc6ncc(C(F)F)cn6)CC5)c4)CC3)cc21 [Example 13, 1-(6-(1-(3-((4-((5-(difluoromethyl)-pyrimidin-2-yl)amino)piperidin-1-yl)sulfonyl)benzyl)piperidin-4-yl)-1-methyl-1H-indazol-3-yl)dihydropyrimidine-2,4(1H,3H)-dione]
Cn1nc(N2CCC(=O)NC2=O)c2ccc(C3CCN(C[C@@H]4CCCCN4c4cccc(S(=O)(=O)N5CCC(Nc6ncc(OC(F)F)cn6)CC5)c4)CC3)cc21 [Example 261, (S)-1-(6-(1-((1-(3-((4-((5-(difluoromethoxy)pyrimidin-2-yl)amino)piperidin-1-yl)sulfonyl)phenyl)piperidin-2-yl)methyl)piperidin-4-yl)-1-methyl-1H-indazol-3-yl)dihydropyrimidine-2,4(1H,3H)-dione]
O=C1CCC(N2Cc3cc(N4CCN(Cc5cccc(S(=O)(=O)N6CCC(Nc7ncc(Cl)cn7)CC6)c5)CC4)c(F)cc3C2=O)C(=O)N1 (stereo not shown) [Example 34, 3-(5-(4-(3-((4-((5-chloropyrimidin-2-yl)amino)piperidin-1-yl)sulfonyl)benzyl)-piperazin-1-yl)-6-fluoro-1-oxoisoindolin-2-yl)piperidine-2,6-dione]
O=C1CCC(NC(=O)c2ccc(C3CCN(CC4CCN(c5cccc(S(=O)(=O)N6CCC(Nc7ncc(C(F)(F)F)cn7)CC6)c5)CC4)CC3)cc2F)C(=O)N1 (stereo not shown) [Example 236, N-(2,6-dioxopiperidin-3-yl)-2-fluoro-4-(1-((1-(3-((4-((5-(trifluoromethyl)pyrimidin-2-yl)amino)piperidin-1-yl)sulfonyl)phenyl)piperidin-4-yl)methyl)piperidin-4-yl)benzamide]
CC(Cc1cccc(S(=O)(=O)N2CCC(Nc3ncc(C(F)(F)F)cn3)CC2)c1)CN1CCN(c2cc3c(cc2F)C(=O)N(C2CCC(=O)NC2=O)C3)CC1 (stereo not shown) [Example 96, 3-(6-fluoro-5-(4-(2-methyl-3-(3-((4-((5-(trifluoromethyl)pyrimidin-2-yl)amino)-piperidin-1-yl)sulfonyl)phenyl)propyl)-piperazin-1-yl)-1-oxoisoindolin-2-yl)piperidine-2,6-dione]
Cn1nc(N2CCC(=O)NC2=O)c2ccc(C3CCN(CC4CCCN(c5cccc(S(=O)(=O)N6CCC(Nc7ncc(Cl)cn7)CC6)c5)CC4)CC3)cc21 (stereo not shown) [Example 136, 1-(6-(1-((1-(3-((4-((5-chloropyrimidin-2-yl)amino)piperidin-1-yl)sulfonyl)phenyl)-azepan-4-yl)methyl)piperidin-4-yl)-1-methyl-1H-indazol-3-yl)dihydropyrimidine-2,4(1H,3H)-dione]
O=C1CCN(c2cccc(C3CCN(CC4CCN(c5cccc(S(=O)(=O)N6CCC(Nc7ncc(Cl)cn7)CC6)c5)CC4)CC3)c2)C(=O)N1 [Example 182, 1-(3-(1-((1-(3-((4-((5-chloropyrimidin-2-yl)amino)piperidin-1-yl)sulfonyl)phenyl)piperidin-4-yl)methyl)piperidin-4-yl)phenyl) dihydropyrimidine-2,4(1H,3H)-dione]

IC50, > 2500 nM:
Cn1nc(N2CCC(=O)NC2=O)c2ccc(N3CCC(CN4CCN(c5cccc(S(=O)(=O)N6CCC(Nc7ncc(Cl)cn7)CC6)c5)CC4)CC3)cc21 [Example 138, 1-(6-(4-((4-(3-((4-((5-chloropyrimidin-2-yl)amino)piperidin-1-yl)sulfonyl)phenyl)-piperazin-1-yl)methyl)piperidin-1-yl)-1-methyl-1H-indazol-3-yl)dihydropyrimidine-2,4(1H,3H)-dione]
Cn1nc(N2CCC(=O)NC2=O)c2ccc(N3CCC(CN4CC5CCC(C4)N5c4cccc(S(=O)(=O)N5CCC(Nc6ncc(Cl)cn6)CC5)c4)CC3)cc21 [Example 191, 1-(6-(4-((8-(3-((4-((5-chloropyrimidin-2-yl)amino)piperidin-1-yl)sulfonyl)phenyl)-3,8-diazabicyclo[3.2.1]octan-3-yl)methyl)piperidin-1-yl)-1-methyl-1H-indazol-3-yl)dihydropyrimidine-2,4(1H,3H)-dione]
Cn1nc(N2CCC(=O)NC2=O)c2ccc(C3CCN(CC4(C#N)CCN(c5cccc(S(=O)(=O)N6CCC(Nc7ncc(Cl)cn7)CC6)c5)CC4)CC3)cc21 [Example 164, 1-(3-((4-((5-chloropyrimidin-2-yl)amino)piperidin-1-yl)sulfonyl)phenyl)-4-((4-(3-(2,4-dioxotetrahydropyrimidin-1(2H)-yl)-1-methyl-1H-indazol-6-yl)piperidin-1-yl)methyl)piperidine-4-carbonitrile]

IC50, 500 to 2500 nM:
O=C1CCC(N2Cc3cc(N4CCN(CC5CCN(c6cccc(S(=O)(=O)N7CCC(Nc8ncc(Cl)cn8)CC7)c6)CC5)CC4)c(F)cc3C2=O)C(=O)N1 (stereo not shown) [Example 103, 3-(5-(4-((1-(3-((4-((5-chloropyrimidin-2-yl)amino)piperidin-1-yl)sulfonyl)phenyl)-piperidin-4-yl)methyl)piperazin-1-yl)-6-fluoro-1-oxoisoindolin-2-yl)piperidine-2,6-dione]
Cn1nc(N2CCC(=O)NC2=O)c2ccc(C3CCN(Cc4ccnc(S(=O)(=O)N5CCC(Nc6ncc(C(F)(F)F)cn6)CC5)c4)CC3)cc21 [Example 183, 1-(1-methyl-6-(1-((2-((4-((5-(trifluoromethyl)pyrimidin-2-yl)amino)piperidin-1-yl)sulfonyl)pyridin-4-yl)methyl)piperidin-4-yl)-1H-indazol-3-yl)dihydropyrimidine-2,4(1H,3H)-dione]
N#Cc1ccc(S(=O)(=O)N2CCC(Nc3ncc(Cl)cn3)CC2)cc1N1CCC(CN2CCN(c3cc4c(cc3F)C(=O)N(C3CCC(=O)NC3=O)C4=O)CC2)CC1 (stereo not shown) [Example 185, 4-((4-((5-chloropyrimidin-2-yl)amino)piperidin-1-yl)sulfonyl)-2-(4-((4-(2-(2,6-dioxopiperidin-3-yl)-6-fluoro-1,3-dioxoisoindolin-5-yl)piperazin-1-yl)methyl)piperidin-1-yl)benzonitrile]

IC50, 1 to 100 nM:
Cn1nc(N2CCC(=O)NC2=O)c2ccc(C3CCN(Cc4ccc(-c5cccc(S(=O)(=O)N6CCC(Nc7ncc(Cl)cn7)CC6)c5)cc4)CC3)cc21 [Example 122]
Cn1nc(N2CCC(=O)NC2=O)c2ccc(C3CCN(CC4CN(c5cccc(S(=O)(=O)N6CCC(Nc7ncc(Cl)cn7)CC6)c5)C4)CC3)cc21 [Example 129, 1-(6-(1-((1-(3-((4-((5-chloropyrimidin-2-yl)amino)piperidin-1-yl)sulfonyl)phenyl)-azetidin-3-yl)methyl)piperidin-4-yl)-1-methyl-1H-indazol-3-yl)dihydropyrimidine-2,4(1H,3H)-dione]
